Measured values published in patent US7232814B2 (Centre National de la Recherche Scientifique (C.N.R.S.), priority 2000, dated 2007).

Melting point, > 330 °C:
O=C1Cc2c([nH]c3ccc([N+](=O)[O-])cc23)-c2cc(Br)ccc2N1 [98 N 354, 2-Bromo-7,12-dihydro-9-nitro-indolo[3,2-d][1]benzazepin-6(5H)-one(2-bromo-9-nitropaullone)]
COc1cc2c(cc1OC)-c1[nH]c3ccc([N+](=O)[O-])cc3c1CC(=O)N2 [98 N 356, 2,3-Dimethoxy-7,12-dihydro-9-nitro-indolo[3,2-d][1]benzazepin-6(5H)-one(2,3-dimethoxy-9-nitropaullone)]
COc1cc2c(cc1OC)-c1[nH]c3ccc(C#N)cc3c1CC(=O)N2 [98 N 217, 2,3-Dimethoxy-6-oxo-5,6,7,12-tetrahydro-indolo [3,2-d][1]benzazepin-9-carbonitrile(9-cyano-2,3-dimethoxypaullone)]
